For ten compounds, IC50 results are on record in US9475817B2 (BRISTOL-MYERS SQUIBB COMPANY, priority 2012, dated 2016).

SMILES strings stand for the structures.

One test concerns the target CK1ε (Homo sapiens (Human), UniProt P49674). As to the kind of experiment: CK1ε kinase assay (Caliper LabChip, fluoresceinated peptide substrate). Type of test: biochemical. To be noted: 200 pM CK1ε, 50 μM ATP, 1.5 μM peptide substrate, 22 hours room temperature. How it is done:
(§1) CK1ε and CK1δ Kinase Assays
(§2) The kinase assay was performed in V-bottom 384-well plates. […] The reaction was incubated at room temperature for 22 hours and terminated by adding 45 μl of 35 mM EDTA to each sample. […] Compounds were dissolved at 10 mM in dimethylsulfoxide (DMSO) and evaluated at eleven concentrations. IC50 values were derived by non-linear regression analysis.

In the next test the target is CK1δ (Homo sapiens (Human), UniProt P48730). As to the kind of experiment: CK1δ kinase assay (Caliper LabChip, fluoresceinated peptide substrate). Type of test: biochemical. Particulars: 200 pM CK1δ, 50 μM ATP, 1.5 μM peptide substrate, 22 hours room temperature. How it is done:
as §1, §2

Sequence of CK1ε (P49674 whole entry): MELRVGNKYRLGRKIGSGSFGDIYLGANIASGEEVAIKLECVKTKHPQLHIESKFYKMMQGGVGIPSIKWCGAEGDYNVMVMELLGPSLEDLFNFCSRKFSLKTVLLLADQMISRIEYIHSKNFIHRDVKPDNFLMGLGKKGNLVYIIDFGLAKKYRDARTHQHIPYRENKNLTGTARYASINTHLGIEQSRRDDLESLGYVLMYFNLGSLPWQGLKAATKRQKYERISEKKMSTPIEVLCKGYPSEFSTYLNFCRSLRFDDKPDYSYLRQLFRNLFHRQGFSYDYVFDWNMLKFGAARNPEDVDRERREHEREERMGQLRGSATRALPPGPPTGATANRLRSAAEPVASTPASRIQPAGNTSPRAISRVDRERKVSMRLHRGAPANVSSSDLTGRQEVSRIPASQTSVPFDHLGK
Sequence of CK1δ (P48730 whole entry): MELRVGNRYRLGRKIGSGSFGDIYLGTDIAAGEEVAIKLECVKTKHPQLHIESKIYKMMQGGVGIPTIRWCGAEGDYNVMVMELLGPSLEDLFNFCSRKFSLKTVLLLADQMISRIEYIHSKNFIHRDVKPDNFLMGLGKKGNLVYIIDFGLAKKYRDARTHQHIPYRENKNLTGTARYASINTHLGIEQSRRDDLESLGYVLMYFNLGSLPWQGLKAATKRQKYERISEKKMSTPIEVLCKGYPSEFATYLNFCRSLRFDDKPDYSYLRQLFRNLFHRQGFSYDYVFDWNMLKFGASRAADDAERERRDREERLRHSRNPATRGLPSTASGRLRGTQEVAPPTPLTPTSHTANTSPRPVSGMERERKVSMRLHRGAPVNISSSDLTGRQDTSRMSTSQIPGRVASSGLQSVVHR

As a reminder, the IC50 is the concentration that inhibits the measured activity by half. Read a high IC50 as weaker potency in that assay. On to `Cc1nc(-c2ccncc2)sc1C(=O)Nc1cn2nc(-c3c(-c4ccc(F)cc4)nn(C)c3C3CCN(C)CC3)ccc2n1` [Compound 180, N-(6-(3-(4-Fluorophenyl)-1-methyl-5-(1-methylpiperidin-4-yl)-1H-pyrazol-4-yl)imidazo[1,2-b]pyridazin-2-yl)-4-methyl-2-(pyridin-4-yl)thiazole-5-carboxamide], for which the IC50 was determined as 7.1 nM against CK1ε and 2.1 nM against CK1δ.
For `Cn1nc(-c2ccc(F)cc2)c(-c2ccc3nc(NC(=O)c4ccnc(N5CCOCC5)c4)cn3n2)c1N1CCN(C(=O)CC(F)(F)F)CC1` [Compound 138, N-(6-(3-(4-Fluorophenyl)-1-methyl-5-(4-(3,3,3-trifluoropropanoyl)piperazin-1-yl)-1H-pyrazol-4-yl)imidazo[1,2-b]pyridazin-2-yl)-2-morpholinoisonicotinamide], the IC50 is 9.3 nM against CK1ε and 1.6 nM against CK1δ.
Taken in the same sequence, the figures for `Cn1cc(-c2ccc3nc(NC(=O)c4ncccn4)cn3n2)c(-c2ccc(F)cc2)n1` [Compound 29, N-(6-(3-(4-fluorophenyl)-1-methyl-1H-pyrazol-4-yl)imidazo[1,2-b]pyridazin-2-yl)pyrimidine-2-carboxamide] were 48.1 nM and 16 nM.
Consider `Cn1cc(-c2ccc3nc(NC(=O)c4ccc(CO)cc4F)cn3n2)c(-c2ccc(F)cc2)n1` [Compound 41, 2-fluoro-N-(6-(3-(4-fluorophenyl)-1-methyl-1H-pyrazol-4-yl)imidazo[1,2-b]pyridazin-2-yl)-4-(hydroxymethyl)benzamide], for which the IC50 against CK1ε stood at 11.5 nM; on CK1δ, 4 nM.
Turning to `Cn1cc(-c2ccc3nc(NC(=O)c4csc(-c5ccncc5)n4)cn3n2)c(-c2ccc(F)cc2)n1` [Compound 8, N-(6-(3-(4-fluorophenyl)-1-methyl-1H-pyrazol-4-yl)imidazo[1,2-b]pyridazin-2-yl)-2-(pyridin-4-yl)thiazole-4-carboxamide], the IC50 came out at 31.4 nM at CK1ε and 5.4 nM on CK1δ.
Taken in the same sequence, the figures for `Cc1nc(-c2ccccn2)sc1C(=O)Nc1cn2nc(-c3cn(C4CC4)nc3-c3ccc(F)cc3)ccc2n1` [Compound 110, N-(6-(1-cyclopropyl-3-(4-fluorophenyl)-1H-pyrazol-4-yl)imidazo[1,2-b]pyridazin-2-yl)-4-methyl-2-(pyridin-2-yl)thiazole-5-carboxamide] were 28.8 nM and 5.5 nM.
Taken in the same sequence, the figures for `Cn1cc(-c2ccc3nc(NC(=O)c4cccc(C(F)(F)F)n4)cn3n2)c(-c2ccc(F)cc2)n1` [Compound 65, N-(6-(3-(4-fluorophenyl)-1-methyl-1H-pyrazol-4-yl)imidazo[1,2-b]pyridazin-2-yl)-6-(trifluoromethyl) picolinamide] were 158 nM and 24.7 nM.
In the case of `Cn1nc(-c2ccc(F)cc2)c(-c2ccc3nc(NC(=O)c4ccnc(F)c4)cn3n2)c1C1CCN(C[C@H](O)C(F)(F)F)CC1` [Compound 159, (S)-2-Fluoro-N-(6-(3-(4-fluorophenyl)-1-methyl-5-(1-(3,3,3-trifluoro-2-hydroxypropyl)piperidin-4-yl)-1H-pyrazol-4-yl)imidazo[1,2-b]pyridazin-2-yl)isonicotinamide], the values for the IC50 at CK1ε and at CK1δ were 1.4 nM and 0.4 nM, respectively.
Taken in the same sequence, the figures for `Cn1nc(-c2ccc(F)cc2)c(-c2ccc3nc(NC(=O)c4ccncc4)cn3n2)c1N1CCN(C(=O)CC(F)(F)F)CC1` [Compound 132, N-(6-(3-(4-Fluorophenyl)-1-methyl-5-(4-(3,3,3-trifluoropropanoyl)piperazin-1-yl)-1H-pyrazol-4-yl)imidazo[1,2-b]pyridazin-2-yl)isonicotinamide] were 6.7 nM and 0.6 nM.
Consider `Cn1nc(-c2ccc(F)cc2)c(-c2ccc3nc(NC(=O)c4ccncc4)cn3n2)c1N1CCN(C(=O)c2ccon2)CC1` [Compound 133, N-(6-(3-(4-Fluorophenyl)-5-(4-(isoxazole-3-carbonyl)piperazin-1-yl)-1-methyl-1H-pyrazol-4-yl)imidazo[1,2-b]pyridazin-2-yl)isonicotinamide], for which the results for the IC50 against CK1ε and against CK1δ were 8.1 nM and 1 nM, respectively.
